Laboratory results reported in patent publication US6365359B1 (The Regents of the University of California, priority 1997, dated 2002).
Where a SMILES comes first, the peptide text is derived from it. [ ]: non-standard residue; d: D form. The star is where a group is joined. AMC = Cc1cc(=O)oc2cc(N*)ccc12; pGlu = O=C1CC[C@@H](C(=O)O)N1; Cbz = O=C(OCc1ccccc1)*

Tested on: PrP^Sc formation in transiently transfected ScN2a cells
Type: cell-based, mouse

Molecule: 2′-O-Anthramiloy Indenosine 3′5′-Cyclic Monophosphate [Compound 40]
- Results (effect on transiently transfected ScN2a cells; inhibitory effect on PrP^Sc formation): Negative

Molecule: 6-Morpholino-5-Nitroimidazol [Compound 66]
- Results (effect on transiently transfected ScN2a cells; inhibitory effect on PrP^Sc formation): Negative

Molecule: CCCCC(NC(=O)CCl)C(=O)O (racemic) [Compound 6, Chloroacetyl-DL-Nortencine]
- Results (effect on transiently transfected ScN2a cells; inhibitory effect on PrP^Sc formation): Negative

Molecule: CN1C(=O)C(CCCNC(=N)N)NC1=S.Cl (racemic) [Compound 34, MTH-DL-Arginine HCI]
- Results (effect on transiently transfected ScN2a cells; inhibitory effect on PrP^Sc formation): Negative

Molecule: O=C(O)C(Cc1cnc[nH]1)N1C(=O)c2ccccc2C1=O (racemic) [Compound 45, N Phrhaloyl-DL-Histidine]
- Results (effect on transiently transfected ScN2a cells; inhibitory effect on PrP^Sc formation): Negative

Molecule: O=C(O)/C=C/c1c[nH]cn1 [Compound 1, Urocanic Acid]
- Results (effect on transiently transfected ScN2a cells; inhibitory effect on PrP^Sc formation): Negative

Molecule: Nc1ncnc2c1ncn2[C@H]1O[C@H](CO)[C@@H](O)[C@H]1O [Compound 3, α-Adenosine]
- Results (effect on transiently transfected ScN2a cells; inhibitory effect on PrP^Sc formation): Negative

Molecule: O=P(O)(O)OC[C@H]1O[C@@H](n2cnc3c2ncn2ccnc32)[C@H](O)[C@@H]1O [Compound 7, 1, N6-Ethenoadenosine-5′-Monophosphate]
- Results (effect on transiently transfected ScN2a cells; inhibitory effect on PrP^Sc formation): Positive

Molecule: NC[C@H]1O[C@H](O[C@H]2[C@H](O)[C@@H](O)[C@H](N)C[C@@H]2N)[C@H](N)[C@@H](O)[C@@H]1O [Compound 9, Neamine]
- Results (effect on transiently transfected ScN2a cells; inhibitory effect on PrP^Sc formation): Negative

Molecule: Nc1ccn([C@@H]2O[C@H](CO)[C@@H](OP(=O)(O)OC[C@H]3O[C@@H](n4cnc5c(=O)[nH]c(N)nc54)[C@H](O)[C@@H]3O)[C@H]2O)c(=O)n1 [Compound 10, Cytidylyl (3′5′) Guanosine]
- Results (effect on transiently transfected ScN2a cells; inhibitory effect on PrP^Sc formation): Negative

Molecule: Cn1c(=O)c2c(ncn2C)n(C)c1=O [Compound 13, Caffeine, reference compound]
- Results (effect on transiently transfected ScN2a cells; inhibitory effect on PrP^Sc formation): Negative

Molecule: N=C(N)c1ccc(-c2cc3ccc(C(=N)N)cc3[nH]2)cc1 [Compound 14, 4′,6-Diamidino-2 Phenylindole]
- Results (effect on transiently transfected ScN2a cells; inhibitory effect on PrP^Sc formation): Negative

Molecule: NCCC(O)C(=O)NC1CC(N)C(OC2OC(CN)C(O)[C@H](O)[C@@H]2N)[C@H](OC2O[C@H](CO)[C@@H](O)[C@@H]2O)[C@@H]1O.O=S(=O)(O)O.O=S(=O)(O)O (stereo partly drawn) [Compound 15, Butirosin Disulfate Salt, reference compound]
- Results (effect on transiently transfected ScN2a cells; inhibitory effect on PrP^Sc formation): Negative

Molecule: CN(C)c1ncnc2c1ncn2[C@@H]1O[C@H](CO)[C@@H](N)[C@H]1O [Compound 16, Puromycin Aminonucleoside]
- Results (effect on transiently transfected ScN2a cells; inhibitory effect on PrP^Sc formation): Negative

Molecule: CC(=O)O[C@@H]1[C@H](OC(C)=O)[C@@H](CO)O[C@H]1n1cnc2c(=O)[nH]c(N)nc21 [Compound 17, 2′3′-Di-O-Acetylguanoside]
- Results (effect on transiently transfected ScN2a cells; inhibitory effect on PrP^Sc formation): Negative

Molecule: OC[C@H]1O[C@@H](n2cnc3cncnc32)[C@H](O)[C@@H]1O [Compound 18, Purine Riboside]
- Results (effect on transiently transfected ScN2a cells; inhibitory effect on PrP^Sc formation): Positive

Molecule: NC[C@H]1O[C@H](O[C@H]2[C@H](O[C@@H]3O[C@H](CO)[C@@H](O)[C@H]3O)[C@@H](O)[C@H](N)C[C@@H]2N)[C@H](N)[C@@H](O)[C@@H]1O [Compound 21, Ribostamycin, reference compound]
- Results (effect on transiently transfected ScN2a cells; inhibitory effect on PrP^Sc formation): Negative

Molecule: NC[C@@H]1CC[C@@H](N)[C@@H](O[C@H]2[C@H](O)[C@@H](O[C@H]3O[C@H](CO)[C@@H](O)[C@H](N)[C@H]3O)[C@H](N)C[C@@H]2N)O1 [Compound 22, Dibekacin, reference compound]
- Results (effect on transiently transfected ScN2a cells; inhibitory effect on PrP^Sc formation): Negative

Molecule: CN[C@@H]1[C@@H](O)[C@@H](O[C@@H]2[C@@H](O)[C@H](O[C@H]3OC(CN)=CC[C@H]3N)[C@@H](N)C[C@H]2N)OC[C@]1(C)O [Compound 23, Sisomycin, reference compound]
- Results (effect on transiently transfected ScN2a cells; inhibitory effect on PrP^Sc formation): Negative

Molecule: N=C(N)c1ccc(Oc2ccc(-c3cc4ccc(C(=N)N)cc4[nH]3)cc2)cc1 [Compound 25, Amidinophenyl (6 Amidino-2-indolyl)Phenyl Ether]
- Results (effect on transiently transfected ScN2a cells; inhibitory effect on PrP^Sc formation): Negative

Molecule: Nc1ccn([C@@H]2O[C@H](COP(=O)(O)O[C@H]3[C@@H](O)[C@H](n4cnc5c(N)ncnc54)O[C@@H]3CO)[C@@H](O)[C@H]2O)c(=O)n1 [Compound 27, Adenylyl (3′5′)Cytidine]
- Results (effect on transiently transfected ScN2a cells; inhibitory effect on PrP^Sc formation): Negative

Molecule: Nc1nc2c(ncn2[C@@H]2O[C@H](COP(=O)(O)O[C@@H]3[C@H](O)[C@@H](CO)O[C@H]3n3cnc4c(=O)[nH]c(N)nc43)[C@@H](O)[C@H]2O)c(=O)[nH]1 [Compound 28, Guanylyl (2′5′)Guanosine]
- Results (effect on transiently transfected ScN2a cells; inhibitory effect on PrP^Sc formation): Negative

Molecule: Nc1ncnc2c1ncn2[C@@H]1O[C@H](CO)[C@H]2OP(=O)([O-])O[C@H]21.[Na+] [Compound 29, Adenosine 2′3′cyclic monophosphase sodium salt]
- Results (effect on transiently transfected ScN2a cells; inhibitory effect on PrP^Sc formation): Negative

Molecule: CC(=O)O[C@@H]1[C@H](OC(C)=O)[C@@H](CO)O[C@H]1n1cnc2c(N)ncnc21 [Compound 32, 2′3′-Di-O-Acetyladenosine]
- Results (effect on transiently transfected ScN2a cells; inhibitory effect on PrP^Sc formation): Positive

Molecule: O=P(O)(O)O[C@H]1[C@@H](O)[C@H](n2cnc3c(O)ncnc32)O[C@@H]1CO [Compound 36, Inosine 3′-Monophosphate]
- Results (effect on transiently transfected ScN2a cells; inhibitory effect on PrP^Sc formation): Negative

Molecule: NC(=NO)c1nc[nH]c1N [Compound 37, Amino Imidazole Carobxamidoxime]
- Results (effect on transiently transfected ScN2a cells; inhibitory effect on PrP^Sc formation): Negative

Molecule: NC(=O)NC(NC(N)=O)C(=O)O [Compound 38, Allentoic Acid]
- Results (effect on transiently transfected ScN2a cells; inhibitory effect on PrP^Sc formation): Negative

Molecule: NCC[C@H](O)C(=O)N[C@@H]1C[C@H](N)[C@@H](O[C@H]2O[C@H](CN)[C@@H](O)[C@H](O)[C@H]2O)[C@H](O)[C@H]1O[C@H]1O[C@H](CO)[C@@H](O)[C@H](N)[C@H]1O [Compound 39, Amikacin, reference compound]
- Results (effect on transiently transfected ScN2a cells; inhibitory effect on PrP^Sc formation): Negative

Molecule: NC(=O)c1ccc(C(=O)O)cc1C(=O)O [Compound 41, Trimellitic Acid Amide]
- Results (effect on transiently transfected ScN2a cells; inhibitory effect on PrP^Sc formation): Negative

Molecule: [H]/N=C(/N)N[C@H]1[C@H](O)[C@@H](O)[C@H](O[C@@H]2O[C@@H](C)[C@](O)(C=O)[C@H]2O[C@@H]2O[C@@H](CO)[C@H](O)[C@@H](O)[C@@H]2NC)[C@@H](N/C(N)=N\[H])[C@@H]1O [Compound 42, Streptomycin, reference compound]
- Results (effect on transiently transfected ScN2a cells; inhibitory effect on PrP^Sc formation): Negative

Molecule: CC1(C)C(=O)NC(=O)N1SN1C(=O)NC(=O)C1(C)C [Compound 44, 1,1, Thhiobis 5,5′ Dimethyl hydratoin]
- Results (effect on transiently transfected ScN2a cells; inhibitory effect on PrP^Sc formation): Negative

Molecule: Nc1ccc(Cc2ccc(N)cc2[N+](=O)[O-])cc1 [Compound 47, 3 mitro 4,4′ methylamediamiline]
- Results (effect on transiently transfected ScN2a cells; inhibitory effect on PrP^Sc formation): Negative

Molecule: O=C(NC(CO)Cc1c[nH]cn1)c1ccccc1 [Compound 48, n-alphabenzoyl-L-Histidinol]
- Results (effect on transiently transfected ScN2a cells; inhibitory effect on PrP^Sc formation): Negative

Molecule: COc1ccc(OC)c(NC(=N)N)c1.O=C(O)O [Compound 51, 2,5 Dimethoxy-phenylguanidine Carbonate]
- Results (effect on transiently transfected ScN2a cells; inhibitory effect on PrP^Sc formation): Negative

Molecule: Cc1cc(=O)oc2cc(NC(=O)[C@H](CCCNC(=N)N)NC(=O)[C@H](Cc3ccccc3)NC(=O)OCc3ccccc3)ccc12.Cl [Compound 53, Z-Phenyl-Arginyl-7-Amido-4-Methylcoumarin Hcl] (Cbz-Phe-Arg-{AMC})
- Results (effect on transiently transfected ScN2a cells; inhibitory effect on PrP^Sc formation): Negative

Molecule: Br.N=C(N)NCCC[C@H](NC(=O)OCc1ccccc1)C(=O)OCc1ccc([N+](=O)[O-])cc1 [Compound 54, Z-ARG-OBZL (P-NO2)HBR]
- Results (effect on transiently transfected ScN2a cells; inhibitory effect on PrP^Sc formation): Negative

Molecule: Cl.NC(N)=NC(=O)c1nc(Cl)c(N)nc1N [Compound 69, Amiloride-HCI, reference compound]
- Results (effect on transiently transfected ScN2a cells; inhibitory effect on PrP^Sc formation): Negative

Molecule: BOC-Val-Gly-Arg-βNa-AcOH [Compound 49]
- Results (effect on transiently transfected ScN2a cells; inhibitory effect on PrP^Sc formation): Negative

Molecule: H-Ala-Arg-Oh Acetate [Compound 5]
- Results (effect on transiently transfected ScN2a cells; inhibitory effect on PrP^Sc formation): Negative

Molecule: Hydroxyguanidino-purine Riboside [Compound 26]
- Results (effect on transiently transfected ScN2a cells; inhibitory effect on PrP^Sc formation): Negative

Molecule: Leu-Asp-Val-Pro-Ser (LDVPS; printed: Leu-Asp-Val-Pro-Ser) [Compound 57]
- Results (effect on transiently transfected ScN2a cells; inhibitory effect on PrP^Sc formation): Negative

Molecule: Naphtha (Terbutoxycarbonyl)-L-Arginine [Compound 2]
- Results (effect on transiently transfected ScN2a cells; inhibitory effect on PrP^Sc formation): Negative

Molecule: PGlu-Gly-Arg-Phe Amide ([pGlu]GRF-NH2; SMILES N=C(N)NCCC[C@H](NC(=O)CNC(=O)[C@@H]1CCC(=O)N1)C(=O)N[C@@H](Cc1ccccc1)C(N)=O) [Compound 20]
- Results (effect on transiently transfected ScN2a cells; inhibitory effect on PrP^Sc formation): Negative

Molecule: [Glu]-TRH [Compound 55]
- Results (effect on transiently transfected ScN2a cells; inhibitory effect on PrP^Sc formation): negative

Molecule: [Mei(O)4, D-Lyss, Pho9]-Fragment 4-9 [Compound 30]
- Results (effect on transiently transfected ScN2a cells; inhibitory effect on PrP^Sc formation): Negative
